In patent publication US9273033B2, “Substituted pyridone derivatives as PDE10 inhibitors” (Merck Sharp & Dohme Corp., priority 2012, dated 2016):

Target: human PDE10A2 (Homo sapiens (Human), UniProt Q9Y233)
Assay: PDE10 fluorescence polarization (IMAP FP) inhibition assay
Type: biochemical
Details: human PDE10A2, FAM-labeled cAMP substrate, read-out: PDE10A Ki
Method: The activity of the compounds in accordance with the present invention as PDE10 inhibitors may be readily determined without undue experimentation using a fluorescence polarization (FP) methodology that is well known in the art (Huang, W., et al., J. Biomol Screen, 2002, 7: 215).
In a typical experiment the PDE10 inhibitory activity of the compounds of the present invention was determined in accordance with the following experimental method. PDE10A2 was amplified from human fetal brain cDNA (Clontech, Mountain View, Calif.) using a forward primer corresponding to nucleotides 56-77 of human PDE10A2 (Accession No. AF127480, Genbank Identifier 4894716), containing a Kozak consensus sequence, and a reverse primer corresponding to nucleotides 2406-2413 of human PDE10A2 (Accession No. AF127480, Genbank Identifier 4894716). Amplification with Easy-A polymerase (Stratagene, La Jolla, Calif.) was 95° C. for 2 minutes followed by thirty three cycles of 95° C. for 40 seconds, 55° C. for 30 seconds, and 72° C. for 2 minutes 48 seconds. Final extension was 72° C. for 7 minutes. The PCR product was TA cloned into pcDNA3.2-TOPO (Invitrogen, Carlsbad, Calif.) according to standard protocol. AD293 cells with 70-80% confluency were transiently transfected with human PDE10A2/pcDNA3.2-TOPO using Lipofectamine 2000 according to manufacturer specifications (Invitrogen, Carlsbad, Calif.). Cells were harvested 48 hours post-transfection and lysed by sonication (setting 3, 10×5 sec pulses) in a buffer containing 20 mM HEPES, 1 mM EDTA and protease inhibitor cocktail (Roche). Lysate was collected by centrifugation at 75,000×g for 20 minutes. Supernatant containing the cytoplasmic fraction was used for evaluation of PDE10A2 activity. The fluorescence polarization assay for cyclic nucleotide phosphodiesterases was performed using an IMAP® FP kit supplied by Molecular Devices, Sunnyvale, Calif. (product # R8139). IMAPU technology has been applied previously to phosphodiesterase assays (Huang, W., et al., J. Biomol Screen, 2002, 7: 215). Assays were performed at room temperature in 384-well microtiter plates with an incubation volume of 20.2 μL. Solutions of test compounds were prepared in DMSO and serially diluted with DMSO to yield 8 μL of each of 10 solutions differing by 3-fold in concentration, at 32 serial dilutions per plate. 100% inhibition is determined using a known PDE10 inhibitor, which can be any compound that is present at 5,000 times its Ki value in the assay described as follows, such as papaverine (see Siuciak, et al. Neuropharmacology (2006) 51:386-396; Becker, et al. Behav Brain Res (2008) 186(2):155-60; Threlfell, et al., J Pharmacol Exp Ther (2009) 328(3):785-795), 2-{4-[pyridin-4-yl-1-(2,2,2-trifluoroethyl)-1H-pyrazol-3-yl]phenoxymethyl}quinoline succinic acid or 2-[4-(1-methyl-4-pyridin-4-yl-1H-pyrazol-3-yl)-phenoxymethyl]quinoline succinic acid (see Schmidt, et al. J Pharmacol Exp Ther (2008) 325:681-690; Threlfell, et al., J Pharmacol Exp Ther (2009) 328(3): 785-795). 0% of inhibition is determined by using DMSO (1% final concentrations).
A Labcyte Echo 555 (Labcyte, Sunnyvale, Calif.) is used to dispense 200 nL from each well of the titration plate to the 384 well assay plate. A solution of enzyme (1/1600 dilution from aliquots; sufficient to produce 20% substrate conversion) and a separate solution of FAM-labeled cAMP PDE from Molecular Devices (product # R7506), at a final concentration of 50 nM are made in the assay buffer (10 mM Tris HCl, pH 7.2, 10 mM MgCl2, 0.05% NaN3 0.01% Tween-20, and 1 mM DTT). The enzyme and the substrate are then added to the assay plates in two consecutive additions of 10 μL, and then shaken to mix. The reaction is allowed to proceed at room temperature for 30 minutes. A binding solution is then made from the kit components, comprised of 80% Solution A, 20% Solution B and binding reagent at a volume of 1/600 the total binding solution.

human PDE10A2, sequence (Q9Y233 267-1055): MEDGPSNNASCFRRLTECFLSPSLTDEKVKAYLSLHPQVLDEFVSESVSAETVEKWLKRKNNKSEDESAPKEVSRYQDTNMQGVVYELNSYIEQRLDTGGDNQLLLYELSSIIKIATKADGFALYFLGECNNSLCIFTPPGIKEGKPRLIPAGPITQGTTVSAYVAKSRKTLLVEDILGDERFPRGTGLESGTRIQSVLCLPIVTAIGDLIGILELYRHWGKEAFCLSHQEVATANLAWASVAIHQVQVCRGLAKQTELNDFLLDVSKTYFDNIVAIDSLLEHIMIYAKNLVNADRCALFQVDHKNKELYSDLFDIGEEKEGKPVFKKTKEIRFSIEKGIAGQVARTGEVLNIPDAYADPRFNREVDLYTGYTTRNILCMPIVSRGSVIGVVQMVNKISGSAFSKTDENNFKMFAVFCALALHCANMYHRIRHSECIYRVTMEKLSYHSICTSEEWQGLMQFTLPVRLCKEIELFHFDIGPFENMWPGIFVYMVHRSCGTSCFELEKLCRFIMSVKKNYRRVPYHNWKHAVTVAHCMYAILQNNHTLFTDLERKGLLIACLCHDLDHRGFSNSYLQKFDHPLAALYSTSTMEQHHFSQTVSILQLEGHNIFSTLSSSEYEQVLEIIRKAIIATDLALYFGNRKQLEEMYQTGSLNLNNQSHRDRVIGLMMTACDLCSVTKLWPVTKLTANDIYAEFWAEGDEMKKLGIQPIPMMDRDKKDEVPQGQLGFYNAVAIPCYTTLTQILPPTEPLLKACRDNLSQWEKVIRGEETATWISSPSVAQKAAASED

Structure (SMILES) | Ki
COc1ccc([C@H]2C[C@@H]2COc2nc(C)ncc2-c2ccc(=O)n(OC)c2)nc1 [Example 22, 1-methoxy-5-(4-(((1S,2S)-2-(5-methoxypyridin-2-yl)cyclopropyl)methoxy)-2-methylpyrimidin-5-yl)pyridin-2(1H)-one] | 1900 pM
Cc1ccc([C@H]2C[C@@H]2COc2nc(C)ncc2-c2cc(F)c(=O)n(C)c2)nc1 [Example 25, 3-fluoro-1-methyl-5-(2-methyl-4-(((1S,2S)-2-(5-methylpyridin-2-yl)cyclopropyl)methoxy)pyrimidin-5-yl)pyridin-2(1H)-one] | 1550 pM
Cc1ccc([C@H]2C[C@@H]2COc2nc(C)ncc2-c2ccc(=O)n(C)c2)nc1 [Example 28, 1-methyl-5-(2-methyl-4-(((1S,2S)-2-(5-methylpyridin-2-yl)cyclopropyl)methoxy)pyrimidin-5-yl)pyridin-2(1H)-one] | 2040 pM
COCCn1c(C)c(-c2cnc(C)nc2OC[C@H]2C[C@@H]2c2ccc(OC)cn2)ccc1=O [Example 30, 1-(2-methoxyethyl)-5-(4-(((1S,2S)-2-(5-methoxypyridin-2-yl)cyclopropyl)methoxy)-2-methylpyrimidin-5-yl)-6-methylpyridin-2(1H)-one] | 1460 pM
CCn1c(C)c(-c2cnc(C)nc2OC[C@H]2C[C@@H]2c2ccc(OC)cn2)ccc1=O [Example 33, 1-ethyl-5-(4-(((1S,2S)-2-(5-methoxypyridin-2-yl)cyclopropyl)methoxy)-2-methylpyrimidin-5-yl)-6-methylpyridin-2(1H)-one] | 1780 pM
Cc1ccc([C@H]2C[C@@H]2COc2nc(C)ncc2-c2ccc(=O)n(C(C)C)c2C)nc1 [Example 37, 1-isopropyl-6-methyl-5-(2-methyl-4-(((1S,2S)-2-(5-methylpyridin-2-yl)cyclopropyl)methoxy)pyrimidin-5-yl)pyridin-2(1H)-one] | 4270 pM
Cc1ccc([C@H]2C[C@@H]2COc2nc(C)ncc2-c2ccc(=O)n(CC(F)F)c2)nc1 [Example 43, 1-(2,2-difluoroethyl)-5-(2-methyl-4-(((1S,2S)-2-(5-methylpyridin-2-yl)cyclopropyl)methoxy)pyrimidin-5-yl)pyridin-2(1H)-one] | 2560 pM
COc1ccc([C@H]2C[C@@H]2COc2nc(C)ncc2-c2ccc(=O)n(CC(F)F)c2)nc1 [Example 44, 1-(2,2-difluoroethyl)-5-(4-(((1S,2S)-2-(5-methoxypyridin-2-yl)cyclopropyl)methoxy)-2-methylpyrimidin-5-yl)pyridin-2(1H)-one] | 2300 pM
COc1ccc([C@H]2C[C@@H]2COc2nc(C)ncc2-c2ccc(=O)n(CCC#N)c2)nc1 [Example 45, 3-(5-(4-(((1S,2S)-2-(5-methoxypyridin-2-yl)cyclopropyl)methoxy)-2-methylpyrimidin-5-yl)-2-oxopyridin-1(2H)-yl)propanenitrile] | 1780 pM
Cc1ccc([C@H]2C[C@@H]2COc2nc(C)ncc2-c2ccc(=O)n(CCC#N)c2)nc1 [Example 46, 3-(5-(2-methyl-4-(((1S,2S)-2-(5-methylpyridin-2-yl)cyclopropyl)methoxy)pyrimidin-5-yl)-2-oxopyridin-1(2H)-yl)propanenitrile] | 2150 pM

These reach a lower Ki. Values come first.

Ki | Structure (SMILES)
519 pM | Cc1ccc([C@H]2C[C@@H]2COc2nc(C)ncc2-c2ccc(=O)n(C3CC3)c2)nc1 [Example 23, 1-cyclopropyl-5-(2-methyl-4-(((1S,2S)-2-(5-methylpyridin-2-yl)cyclopropyl)methoxy)pyrimidin-5-yl)pyridin-2(1H)-one]
1070 pM | CCn1cc(-c2cnc(C)nc2OC[C@H]2C[C@@H]2c2ccc(OC)cn2)ccc1=O [Example 24, 1-ethyl-5-(4-(((1S,2S)-2-(5-methoxypyridin-2-yl)cyclopropyl)methoxy)-2-methylpyrimidin-5-yl)pyridin-2(1H)-one]
113 pM | COc1ccc([C@H]2C[C@@H]2COc2nc(C)ncc2-c2ccc(=O)n(C)c2C)nc1 [Example 27, 5-(4-(((1S,2S)-2-(5-methoxypyridin-2-yl)cyclopropyl)methoxy)-2-methylpyrimidin-5-yl)-1,6-dimethylpyridin-2(1H)-one]
52 pM | Cc1ncc(-c2ccc(=O)n(C)c2)c(OC[C@H]2C[C@@H]2c2ccc3ccccc3n2)n1 [Example 29, 1-methyl-5-(2-methyl-4-(((1S,2S)-2-(quinolin-2-yl)cyclopropyl)methoxy)pyrimidin-5-yl)pyridin-2(1H)-one]
45 pM | COCCn1c(C)c(-c2cnc(C)nc2OC[C@H]2C[C@@H]2c2ccc3ccccc3n2)ccc1=O [Example 31, 1-(2-methoxyethyl)-6-methyl-5-(2-methyl-4-(((1S,2S)-2-(quinolin-2-yl)cyclopropyl)methoxy)pyrimidin-5-yl)pyridin-2(1H)-one]
24 pM | CCn1cc(-c2cnc(C)nc2OC[C@H]2C[C@@H]2c2ccc3ccccc3n2)ccc1=O [Example 32, 1-ethyl-5-(2-methyl-4-(((1S,2S)-2-(quinolin-2-yl)cyclopropyl)methoxy)pyrimidin-5-yl)pyridin-2(1H)-one]
6 pM | Cc1ncc(-c2ccc(=O)n(C)c2C)c(OC[C@H]2C[C@@H]2c2ccc3ccccc3n2)n1 [Example 34, 1,6-dimethyl-5-(2-methyl-4-(((1S,2S)-2-(quinolin-2-yl)cyclopropyl)methoxy)pyrimidin-5-yl)pyridin-2(1H)-one]
381 pM | CCn1cc(-c2cnc(C)nc2OC[C@H]2C[C@@H]2c2ccc(OC)cn2)cc(C)c1=O [Example 35, 1-ethyl-5-(4-(((1S,2S)-2-(5-methoxypyridin-2-yl)cyclopropyl)methoxy)-2-methylpyrimidin-5-yl)-3-methylpyridin-2(1H)-one]
45 pM | CCn1c(C)c(-c2cnc(C)nc2OC[C@H]2C[C@@H]2c2ccc3ccccc3n2)ccc1=O [Example 36, 1-ethyl-6-methyl-5-(2-methyl-4-(((1S,2S)-2-(quinolin-2-yl)cyclopropyl)methoxy)pyrimidin-5-yl)pyridin-2(1H)-one]
727 pM | COc1ccc([C@H]2C[C@@H]2COc2nc(C)ncc2-c2cc(C)c(=O)n(C)c2)nc1 [Example 38, 5-(4-(((1S,2S)-2-(5-methoxypyridin-2-yl)cyclopropyl)methoxy)-2-methylpyrimidin-5-yl)-1,3-dimethylpyridin-2(1H)-one]
821 pM | COCCn1cc(-c2cnc(C)nc2OC[C@H]2C[C@@H]2c2ccc(OC)cn2)ccc1=O [Example 39, 1-(2-methoxyethyl)-5-(4-(((1S,2S)-2-(5-methoxypyridin-2-yl)cyclopropyl)methoxy)-2-methylpyrimidin-5-yl)pyridin-2(1H)-one]
409 pM | Cc1ccc([C@H]2C[C@@H]2COc2nc(C)ncc2-c2cc(C)c(=O)n(C)c2)nc1 [Example 40, 1,3-dimethyl-5-(2-methyl-4-(((1S,2S)-2-(5-methylpyridin-2-yl)cyclopropyl)methoxy)pyrimidin-5-yl)pyridin-2(1H)-one]
533 pM | CCn1cc(-c2cnc(C)nc2OC[C@H]2C[C@@H]2c2ccc(C)cn2)cc(C)c1=O [Example 41, 1-ethyl-3-methyl-5-(2-methyl-4-(((1S,2S)-2-(5-methylpyridin-2-yl)cyclopropyl)methoxy)pyrimidin-5-yl)pyridin-2(1H)-one]
531 pM | Cc1ncc(-c2ccc(=O)n(C)c2)c(OC[C@H]2C[C@@H]2c2ccc3c(n2)CCC3)n1 [Example 42, 5-(4-(((1S,2S)-2-(6,7-dihydro-5H-cyclopenta[b]pyridin-2-yl)cyclopropyl)methoxy)-2-methylpyrimidin-5-yl)-1-methylpyridin-2(1H)-one]
